The values below come from patent US7799770B2, “Solid body forms of mesoprogestin 11β-{4E-(hydroxyiminomethyl)-phenyl}-17α methoxymethyl-17β-methoxy-estra-4,9-dien-3-one” (Bayer Schering Pharma AG, priority 2000, dated 2010).

A short description of one data set: Solubility in toluene. The format is physicochemical. An excerpt: The production of the solvate form that is suitable for the solid final form of the oxime can be associated, according to the invention, with the separation of the Z-isomer and the dioximes. By a specific use of the thermodynamic instability of suitable solvates, preferably the solvate of methyl-tert-butyl ether (MTBE) in a solvent environment that is suitable for this purpose, complete dissolution of the solvate lattice is possible far above the solubility limit and even close to room temperature. […] A so-called cold melting is carried out. This state can be kept stable by adding suitable solvents as recrystallization inhibitors for technical applications. The supersaturation state can be stabilized for hours in toluene solution by adding only 5% by volume of methanol. Then, by adding solvating agent-solvent (MTBE) at suitable concentration (e.g., 100-130% by volume of MTBE, relative to the toluene that is used), the solvate lattice is built up again, whereby the contaminants remain in solution for the most part.

For a further data set, the target named is T1, progesterone receptor (Homo sapiens, UniProt P06401).
T1 sequence (P06401 1-933): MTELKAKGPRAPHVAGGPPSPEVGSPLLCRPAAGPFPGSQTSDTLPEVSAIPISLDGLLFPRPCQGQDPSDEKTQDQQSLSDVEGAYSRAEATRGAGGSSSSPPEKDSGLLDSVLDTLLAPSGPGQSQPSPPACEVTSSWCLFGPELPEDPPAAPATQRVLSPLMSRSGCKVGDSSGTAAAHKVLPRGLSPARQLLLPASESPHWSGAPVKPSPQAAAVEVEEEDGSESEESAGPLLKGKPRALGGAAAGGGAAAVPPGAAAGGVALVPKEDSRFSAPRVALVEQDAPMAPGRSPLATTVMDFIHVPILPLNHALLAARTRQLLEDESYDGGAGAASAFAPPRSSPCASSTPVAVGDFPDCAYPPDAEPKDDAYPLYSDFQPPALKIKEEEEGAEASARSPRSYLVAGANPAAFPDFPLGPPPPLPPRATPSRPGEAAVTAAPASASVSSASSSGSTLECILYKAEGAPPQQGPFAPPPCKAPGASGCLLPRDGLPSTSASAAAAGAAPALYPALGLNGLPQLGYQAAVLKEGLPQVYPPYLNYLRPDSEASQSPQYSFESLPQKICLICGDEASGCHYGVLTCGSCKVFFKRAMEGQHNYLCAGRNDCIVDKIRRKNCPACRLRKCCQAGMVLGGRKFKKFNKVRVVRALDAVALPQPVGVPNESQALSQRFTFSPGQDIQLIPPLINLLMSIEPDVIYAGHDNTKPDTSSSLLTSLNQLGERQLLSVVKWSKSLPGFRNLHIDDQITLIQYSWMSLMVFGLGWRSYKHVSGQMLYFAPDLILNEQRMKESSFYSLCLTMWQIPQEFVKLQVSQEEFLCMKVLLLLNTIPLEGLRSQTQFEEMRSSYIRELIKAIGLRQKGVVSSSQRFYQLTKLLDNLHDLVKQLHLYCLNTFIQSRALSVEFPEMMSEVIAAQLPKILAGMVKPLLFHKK
As to conditions: according to EP-A-0 648 778 or DE-A-43 32 283; cited from earlier work.

Data set [1] deals with antiglucocorticoidal activity. As to conditions: according to EP-A-0 648 778 or DE-A-43 32 283; cited from earlier work.
Data set [2] can be described thus: Solubility studies (saturation solubility in water without and with 0.25% SDS). It counts as physicochemical. The method, then: 200 mg of substance was added at 25° C. into 50 ml of water (without and with 0.25% SDS (sodium lauryl sulfate)). Samples were taken after 0.5 hour, 2 hours, 5 hours and 24 hours.
Sampling: 0.45 μm filter attachment, dilution 1:1 with MeOH, HPLC.

Data set [3] is described as follows: Shelf life / accelerated ICH-stability test. It counts as physicochemical. The method, then: In FIG. 5, an x-ray-powder diffractogram of amorphous 11β-[4E-(hydroxyiminomethyl)phenyl]-17α-methoxymethyl-17β-methoxy-estra-4,9-dien-3-one is depicted at time 0 (start), after 12 months at 25° C. and after 12 months at 40° C.
(§1) By the stability, negative influences of such conversions on the bio-availability of the active ingredient are avoided.

Data set [4] in a line: Stability of the physical structure during pharmaceutical processing (wet granulation, pelletizing). It counts as physicochemical.
Source text: as §1

In “Solubility in toluene”, `COC[C@]1(OC)CC[C@H]2[C@@H]3CCC4=CC(=O)CCC4=C3[C@@H](c3ccc(/C=N/O)cc3)C[C@@]21C` [MTBE solvate, 11β-[4E-(hydroxyiminomethyl)phenyl]-17α-methoxymethyl-17β-methoxy-estra-4,9-dien-3-one] displayed a solubility in toluene of 3.3 % by weight.

Take `COC[C@]1(OC)CC[C@H]2[C@@H]3CCC4=CC(=O)CCC4=C3[C@@H](c3ccc(/C=N/O)cc3)C[C@@]21C` [Oxime J867, 11β-[4E-(hydroxyiminomethyl)phenyl]-17α-methoxymethyl-17β-methoxy-estra-4,9-dien-3-one]: the “activity on the progesterone receptor compared with RU 486 (mifepristone)” value at progesterone receptor is reported as “same activity as RU 486 (mifepristone)”. Further, in data set [1], the “antiglucocorticoidal activity compared with RU 486” value is recorded as “significantly reduced”.

Take `COC[C@]1(OC)CC[C@H]2[C@@H]3CCC4=CC(=O)CCC4=C3[C@@H](c3ccc(/C=N/O)cc3)C[C@@]21C` [amorphous form of oxime J867, 11β-[4E-(hydroxyiminomethyl)phenyl]-17α-methoxymethyl-17β-methoxy-estra-4,9-dien-3-one]: the “time for which the high supersaturation level remains stable” value in data set [2] (in surfactant solution (sodium lauryl sulfate)) is “stable for several hours”; in data set [2] (in water) it was “over 24 hours”. In addition, the “signs of recrystallization and/or chemical decomposition of the amorphous structure” value in data set [3] (after 12 months, 40° C., 75% relative humidity) is reported as “does not show any signs of a recrystallization and/or chemical decomposition”. For the same molecule, the “physical structure during pharmaceutical processing (conversion amorphous to highly crystalline, E/Z isomerization)” value in data set [4] is on record as “remains stable”.

As to `COC[C@]1(OC)CC[C@H]2[C@@H]3CCC4=CC(=O)CCC4=C3[C@@H](c3ccc(/C=N/O)cc3)C[C@@]21C` [highly crystalline form of oxime J 867, 11β-[4E-(hydroxyiminomethyl)phenyl]-17α-methoxymethyl-17β-methoxy-estra-4,9-dien-3-one ansolvate], in data set [3] (especially under stress (high temperatures and humidities)), the “chemical stability compared with the amorphous form” value is on record as “higher than that of the amorphous form”.
